Reference: US9265735B2, “Methods for screening to identify therapeutic agents for Alzheimer's disease and use thereof” (New York University, priority 2010, dated 2016)
“Also recorded” adds a separate entry of the source.

Assays:
LC3 puncta = LC3 puncta by LC3 immunocytochemistry in PS1KO cells; type: cell-based, Murine; conditions: 200 μM, 6 h
Protocol: (§1) Immunocytochemistry was performed as previously described (Yu et al., 2005). Secondary antibodies used were from Invitrogen: goat anti-mouse/rabbit/rat Alexa Fluor 488 and goat anti-mouse/rabbit/rat Alexa Fluor 568. Cells were imaged using a plan-Apochromat 40× or 100×/1.4 oil DIC objective lens on the laser scanning confocal microscope, LSM 510 META, with LSM software v3.5 (Carl Zeiss MicroImaging Inc). Images were analysed using ImageJ program (NIH). Organelles with low internal pH were labeled by LysoTracker DND-99 dye (Invitrogen) at the final 100 nM for 30 min. Following 4% PFA fixation, cells were further counter stained with Cat D, LMAP1, or LC3 antibody for 4 hrs then visualized with Alexa Fluor 488 conjugated secondary antibody. Active Cat D was labeled by adding Bodipy-FL-pepstatin A directly to the medium at a final concentration of 1 μg/ml for 1 hr. Following 4% PFA fixation, cells were counter stained with Cat D antibody for 4 hrs and visualized with Alexa Fluor 568 conjugated secondary antibody. […] Cells were incubated for 30 min with MR-Cathepsin B prior to mounting them under the confocal microscope. To block v-ATPase proton pump activity, ammonium chloride (NH4Cl) was added directly to the medium at a final concentration of 20 mM for 6 hrs prior to LysoTracker addition.

Cat B = Cat B activity by MagicRed-Cathepsin B (MR-Cat B) in PS1KO cells; type: cell-based, Murine; conditions: PS1KO cells; 200 μM, 6 h
Protocol: as §1, with “To block v-ATPase proton pump activity, ammonium chloride (NH4Cl) was added directly to the medium at a final concentration of 20 mM for 6 hrs prior to LysoTracker addition.” left out
Active Cat D was labeled by adding Bodipy-FL-pepstatin A directly to the medium at a final concentration of 1 mg/ml for 1 hr. […] Cat B staining with MagicRed-Cathepsin B was also measured fluorometrically with a Wallac Victor 2 fluorometer.

tau = conditions: rats; bilateral injection into the hippocampus; cited from earlier work
[1] = in vivo; cited from earlier work
[2] = test system: autophagic vacuoles (AVs); assay: AV accumulation by EM morphometry in PS1KO cells; type: cell-based, Murine; conditions: 200 μM, 6 h
Protocol: Following treatments, cells were prepared for EM as previously described and AVs, identified using previous morphological criteria (Yu et al., 2005), were classified and counted on electron micrographs (7900× print magnification) of 20 EM images from different lines in each experimental group.

p62 = p62 accumulation in PS1KO cells; type: cell-based, Murine; conditions: 200 μM, 6 h
Protocol: Immunoblotting was performed as previously described (Yu et al., 2005). Briefly, cells used for Western blot analysis were lysed in buffer containing 50 mM Tris (pH=7.4), 150 mM NaCl, 1 mM EDTA, 1 mM EGTA, 1% Triton X-100 and 0.5% Tween-20 with protease and phosphatase inhibitors. Following electrophoresis on 4-20% gradient gel (Invitrogen), proteins were transferred onto 0.45 μm PVDF membranes (Millipore) and the membrane was incubated overnight in primary antibody then incubated with HRP conjugated secondary antibody. The blot was developed by ECL-kit (GE Healthcare). To assess v-ATPase V0a subunit glycosylation, lysate from WT and PS1KO cells were either treated for 24 hrs at 37° C. with PNGase F or O-glycanase using an enzymatic deglycosylation kit according to the manufacturer's instructions (PROzyme) or with Endo H (New England Biolabs) for 24 hrs at 37° C. Total glycoproteins were isolated using Glycoprotein Isolation Kit, ConA according to the manufacturer's instructions (Thermo Scientific).

PS1KO blastocysts = assay: Lysosomal pH measurement with Dextran conjugated Lysosensor Yellow/Blue in PS1KO cells; type: cell-based, Murine; conditions: PS1KO cells
Protocol: For results presented in Example 1, quantification of lysosomal pH was determined using Dextran conjugated Lysosensor Yellow/Blue DND-160 (Invitrogen) as follows. Wild Type and PS1KO blastocysts were grown in High Glucose DMEM+15% FBS with antibiotics to ˜90% confluency. Cells were then trypsinized, harvested (1×10^6 cells/ml) and loaded with 1 mg/ml of Lysosensor-dextran for 1 hour at 37° C. with 5% CO2. The cells were then washed 3× in HBSS and aliquoted at […] into a black 96-well microplate. pH calibration was performed according to the protocol established by Diwu et al (Diwu et al., (1999). Chem Biol 6, 411-418). Briefly, wild type and PS1KO blastocysts were treated with 10 μM monensin and 10 uM nigericin in MES buffer (5 mM NaCl, 115 mM KCL, 1.3 mM MgSO4, 25 mM MES), with the pH adjusted to a range from 3.5-7.0. The samples were read in a Wallac Victor 2 fluorimeter (Perkin Elmer) with excitation at 355 nm. The ratio of emission 440/535 nm was then calculated for each sample. The pH values were determined from the linear standard curve generated via the pH calibration samples.
In a more particular embodiment, quantification of lysosomal pH is determined using Dextran conjugated Lysosensor Yellow/Blue (Invitrogen) as follows. 3000 Wild Type and PS1KO blastocysts were seeded in multiple wells of black, clear bottom tissue culture treated 96 well dish and grown in High Glucose DMEM+15% FBS with antibiotics to ˜90% confluency (˜24 hours). 2 ul of 0.5 mg/ml lysosensor-dextran (1:100 dilution of a 5 mg/ml stock) was added and incubated for 1 hour at 37° C. with 5% CO2. The cells were then washed 3× in HBSS. See also methods and results set forth herein below in Example 2. This modified protocol represents an optimized protocol for the purposes set forth herein.
Quantification of lysosomal pH was determined using Dextran conjugated Lysosensor Yellow/Blue (Invitrogen). 3000 Wild Type and PS1KO blastocysts were seeded in multiple wells of black, clear bottom tissue culture treated 96 well dish and grown in High Glucose DMEM+15% FBS with antibiotics to ˜90% confluency (˜24 hours). 2 ul of 0.5 mg/ml lysosensor-dextran (1:100 dilution of a 5 mg/ml stock) was added and incubated for 1 hour at 37° C. with 5% CO2. The cells were then washed 3× in HBSS.
Performed according to the protocol established by Diwu et al (supra). Briefly, wild type and PS1KO blastocysts were treated with 10 uM monensin and 10 uM nigericin in MES buffer (5 mM NaCl, 115 mM KCL, 1.3 mM MgSO4, 25 mM MES), with the pH adjusted to a range from 3.5-7.0 for 7-10 min prior to lysosensor addition (the additional hour in the buffer seems to have no effect), these cells are not washed in HBSS since permeabilization with ionophores makes them susceptible to detachment.
The samples were read in a Wallac Victor 2 fluorimeter (Perkin Elmer) with excitation at 355 nm. The ratio of emission 440 nm/535 nm was then calculated for each sample. pH values were determined from the linear std curve generated via the pH calibration samples.

## CC(C)NCC(O)c1ccc(O)c(O)c1 (centres unmarked) [isoproterenol]
LC3 puncta
  LC3 puncta accumulation determined by LC3 ICC: reversed
Cat B
  Cat B activity as measured by MR-Cat B: restored to WT levels
tau
  tau phosphorylation and spatial memory: induces Alzheimer-like hyperphosphorylation of tau and spatial memory defects
[1]
  crossing of the blood brain barrier (BBB): cross the blood brain barrier
[2]
  AV accumulation by EM morphometry (total area occupied by AVs per EM field): reversed
p62
  p62 accumulation: reversed
PS1KO blastocysts; 200 μM, 6 h
  lysosomal pH: restored to WT levels
PS1KO blastocysts; FIG. 10A/G
  effect on elevated lysosomal pH in PS1KO cells: normal levels or even hyperacidic levels; also recorded: restored to WT levels
